Results reported in PMC7226027, “Phosphonic Acid Analogs of Fluorophenylalanines as Inhibitors of Human and Porcine Aminopeptidases N: Validation of the Importance of the Substitution of the Aromatic Ring” (Biomolecules, 2020).
Like-named read-outs stand apart in the source and are kept apart here.

Tests used:
Format in all cases: biochemical
[1] = target: T1, hAPN (recombinant human alanine aminopeptidase, EC 3.4.11.2) (Homo sapiens, UniProt P15144); assay: fluorogenic assay, Ala-AMC hydrolysis; Ki by Lineweaver-Burk, Dixon, Cheng-Prusoff
T1 construct: gene ANPEP; commercial recombinant enzyme (R&D Systems), lyophilized powder
Description: fluorogenic assay, Ala-AMC hydrolysis; Ki by Lineweaver-Burk, Dixon, Cheng-Prusoff on hAPN (recombinant human alanine aminopeptidase, EC 3.4.11.2)

[2] = target: T2, pAPN (porcine kidney alanine aminopeptidase, EC 3.4.11.2) (Sus scrofa, UniProt P15145); assay: as above; settings: for pAPN Ki (μM): unreliable (value above highest stated concentration, 1 mM)
T2 construct: gene ANPEP; commercial enzyme from porcine kidney (Sigma Aldrich), native purification, lyophilized powder
T2 sequence (P15145 2-963): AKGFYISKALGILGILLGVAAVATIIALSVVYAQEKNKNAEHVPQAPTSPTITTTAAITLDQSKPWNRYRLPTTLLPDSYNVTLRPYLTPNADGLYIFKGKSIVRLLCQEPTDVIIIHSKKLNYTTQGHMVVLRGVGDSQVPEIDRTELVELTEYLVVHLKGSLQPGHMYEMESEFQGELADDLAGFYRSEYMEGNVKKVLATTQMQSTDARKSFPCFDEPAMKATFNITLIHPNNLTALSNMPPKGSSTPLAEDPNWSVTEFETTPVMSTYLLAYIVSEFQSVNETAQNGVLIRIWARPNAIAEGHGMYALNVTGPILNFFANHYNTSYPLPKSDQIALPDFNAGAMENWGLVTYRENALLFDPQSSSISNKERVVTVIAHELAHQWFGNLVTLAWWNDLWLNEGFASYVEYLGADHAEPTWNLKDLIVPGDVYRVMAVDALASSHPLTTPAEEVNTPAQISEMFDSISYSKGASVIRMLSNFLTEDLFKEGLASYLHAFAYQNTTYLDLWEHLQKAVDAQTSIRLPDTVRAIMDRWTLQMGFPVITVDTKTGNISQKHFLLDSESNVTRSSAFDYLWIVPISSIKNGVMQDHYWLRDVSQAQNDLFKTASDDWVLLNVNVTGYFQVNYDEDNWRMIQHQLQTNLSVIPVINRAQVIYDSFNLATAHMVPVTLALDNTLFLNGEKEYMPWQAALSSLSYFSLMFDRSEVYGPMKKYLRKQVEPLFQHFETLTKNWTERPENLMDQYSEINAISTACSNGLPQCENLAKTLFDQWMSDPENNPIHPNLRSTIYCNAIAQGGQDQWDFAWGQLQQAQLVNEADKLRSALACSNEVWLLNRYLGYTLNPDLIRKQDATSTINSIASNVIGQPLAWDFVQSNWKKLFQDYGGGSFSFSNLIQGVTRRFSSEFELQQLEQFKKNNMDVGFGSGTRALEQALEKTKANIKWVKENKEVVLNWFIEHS
Description: fluorogenic assay, Ala-AMC hydrolysis; Ki by Lineweaver-Burk, Dixon, Cheng-Prusoff on pAPN (porcine kidney alanine aminopeptidase, EC 3.4.11.2)

[3] = target: T2, pAPN (porcine kidney alanine aminopeptidase, EC 3.4.11.2); assay: fluorogenic assay (AMC release); settings: 50 mM Tris-HCl pH 7.20
[4] = target: T1, hAPN (recombinant human alanine aminopeptidase, EC 3.4.11.2); assay: fluorogenic assay (AMC release); settings: 50 mM Tris-HCl pH 7.00
[5] = read-out: Inactive (no inhibition up to 1 mM)
[6] = racemate (hydrochloride), 80 µM Ala-AMC, 50 mM Tris-HCl pH 7.20, 37 °C, 0.66 nM enzyme, 30 min enzyme preincubation in buffer
[7] = racemate (hydrochloride), 80 µM Ala-AMC, 50 mM Tris-HCl pH 7.20, 37 °C

T1 sequence (P15144 33-967 limits assumed): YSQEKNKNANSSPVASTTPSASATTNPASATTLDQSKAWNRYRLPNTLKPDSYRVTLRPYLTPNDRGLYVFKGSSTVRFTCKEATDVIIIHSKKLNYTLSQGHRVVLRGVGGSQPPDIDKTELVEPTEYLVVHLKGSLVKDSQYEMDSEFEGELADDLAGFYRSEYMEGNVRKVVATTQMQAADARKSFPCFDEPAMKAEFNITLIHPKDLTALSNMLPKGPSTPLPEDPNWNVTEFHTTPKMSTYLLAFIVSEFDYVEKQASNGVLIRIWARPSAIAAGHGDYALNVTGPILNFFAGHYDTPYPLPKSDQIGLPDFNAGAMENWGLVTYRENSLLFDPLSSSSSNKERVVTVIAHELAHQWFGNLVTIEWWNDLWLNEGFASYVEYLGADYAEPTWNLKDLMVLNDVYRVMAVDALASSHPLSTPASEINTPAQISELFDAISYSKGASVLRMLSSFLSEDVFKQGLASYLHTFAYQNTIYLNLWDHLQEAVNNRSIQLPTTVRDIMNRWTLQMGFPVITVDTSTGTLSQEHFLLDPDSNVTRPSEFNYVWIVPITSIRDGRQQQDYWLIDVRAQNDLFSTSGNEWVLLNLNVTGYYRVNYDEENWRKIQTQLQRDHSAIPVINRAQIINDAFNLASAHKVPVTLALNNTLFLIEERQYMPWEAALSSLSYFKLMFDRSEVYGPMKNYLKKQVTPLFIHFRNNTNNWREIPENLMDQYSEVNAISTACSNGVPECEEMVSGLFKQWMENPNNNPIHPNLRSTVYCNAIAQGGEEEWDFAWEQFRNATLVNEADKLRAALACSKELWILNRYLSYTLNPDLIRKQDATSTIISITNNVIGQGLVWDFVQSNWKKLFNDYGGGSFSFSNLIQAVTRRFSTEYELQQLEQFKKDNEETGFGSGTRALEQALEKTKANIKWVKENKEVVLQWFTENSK

Structure (SMILES) | Ki ([1]; read-out: hAPN Ki) | Ki [2] | further results
NC(Cc1cc(F)ccc1C(F)(F)F)P(=O)(O)O (racemic) [1y, 1-Amino-2-(5-fluoro-2-trifluoromethylphenyl)ethylphosphonic Acid] | – | – | Ki [1, 5]: > 1000 µM; Inactive (no inhibition up to 1 mM) [2, 6]: > 1 mM
NC(Cc1c(F)c(F)c(F)c(F)c1F)P(=O)(O)O (racemic) [1m, 1-Amino-2-(2,3,4,5,6-pentafluorophenyl)ethylphosphonic Acid] | 139 ± 71 µM | 808 ± 132 µM | –
NC(Cc1cccc(Cl)c1F)P(=O)(O)O (racemic) [1n, 1-Amino-2-(3-chloro-2-fluorophenyl)ethylphosphonic Acid] | 18.5 ± 7.1 µM | 85.1 ± 9.1 µM | –
NC(Cc1cccc(F)c1)P(=O)(O)O (racemic) [1c, 1-Amino-2-(3-fluorophenyl)ethylphosphonic Acid] | – | 26.4 ± 2 µM | Ki [1]: 3.39 ± 0.71 µM
Cc1cc(=O)oc2cc(NC(=O)[C@H](C)N)ccc12 [Ala-AMC, L-alanine-4-methylcoumaryl-7-amide] | – | – | Km [3]: 90 µM; Km [4]: 73 µM
NC(Cc1cc(F)cc(F)c1)P(=O)(O)O (racemic) [1i, 1-Amino-2-(3,5-difluorophenyl)ethylphosphonic Acid] | 0.529 ± 0.088 µM | 8.09 ± 1.1 µM | –
NC(Cc1ccccc1)P(=O)(O)O (stereo not drawn) [1a, 1-Amino-2-phenylethylphosphonic Acid] | – | – | Ki ([1]; racemate (hydrochloride), 50 µM Ala-AMC, 50 mM Tris-HCl pH 7.00, 37 °C, 0.66 nM enzyme, 30 min enzyme preincubation in buffer, read-out: hAPN Ki): 15.5 ± 1.7 µM; Ki [2, 6]: 73.3 ± 7.6 µM
NC(Cc1cc(F)ccc1F)P(=O)(O)O (racemic) [1f, 1-Amino-2-(2,5-difluorophenyl)ethylphosphonic Acid] | 25.9 ± 5 µM | 86.3 ± 8.2 µM | –
NC(Cc1ccccc1C(F)(F)F)P(=O)(O)O (racemic) [1v, 1-Amino-2-(2-trifluoromethylphenyl)ethylphosphonic Acid] | – | – | Ki [1, 5]: > 1000 µM; pAPN Ki (μM) [2, 7]: 2335 ± 617 µM
NC(Cc1c(F)cc(F)cc1F)P(=O)(O)O (racemic) [1k, 1-Amino-2-(2,4,6-trifluorophenyl)ethylphosphonic Acid] | 225 ± 47 µM | 969 ± 158 µM | –
NC(Cc1cc(F)c(F)cc1F)P(=O)(O)O (racemic) [1j, 1-Amino-2-(2,4,5-trifluorophenyl)ethylphosphonic Acid] | 15 ± 2.2 µM | 78.5 ± 3.9 µM | –
NC(Cc1ccc(F)cc1F)P(=O)(O)O (racemic) [1e, 1-Amino-2-(2,4-difluorophenyl)ethylphosphonic Acid] | 13.5 ± 2.7 µM | 95.6 ± 9.6 µM | –
NC(Cc1ccc(F)cc1Cl)P(=O)(O)O (racemic) [1u, 1-Amino-2-(2-chloro-4-fluorophenyl)ethylphosphonic Acid] | 29.1 ± 10.3 µM | 106 ± 12 µM | –
NC(CC(F)(F)F)P(=O)(O)O (racemic) [compound 8, (1-Amino-3,3,3-trifluoropropyl)phosphonic acid] | – | 755 ± 230 µM | Ki [1]: 84.7 ± 15.8 µM
NC(Cc1cc(Cl)ccc1F)P(=O)(O)O (racemic) [1p, 1-Amino-2-(5-chloro-2-fluorophenyl)ethylphosphonic Acid] | 4.3 ± 0.44 µM | 47.2 ± 1.4 µM | –
NC(Cc1ccccc1F)P(=O)(O)O (racemic) [1b, 1-Amino-2-(2-fluorophenyl)ethylphosphonic Acid] | – | 256 ± 19 µM | Ki [1]: 18.1 ± 3.7 µM
NC(Cc1ccc(F)cc1)P(=O)(O)O (racemic) [1d, 1-Amino-2-(4-fluorophenyl)ethylphosphonic Acid] | – | 41.4 ± 2.5 µM | Ki [1]: 4.86 ± 1.18 µM
NC(Cc1ccc(Cl)cc1F)P(=O)(O)O (racemic) [1o, 1-Amino-2-(4-chloro-2-fluorophenyl)ethylphosphonic Acid] | 17.8 ± 2.09 µM | 160 ± 11 µM | –
NC(Cc1cc(F)c(F)c(F)c1)P(=O)(O)O (racemic) [1l, 1-Amino-2-(3,4,5-trifluorophenyl)ethylphosphonic Acid] | 0.793 ± 0.138 µM | 7.1 ± 0.93 µM | –

Second part, led by results:

Ki ([1]; read-out: hAPN Ki) | Ki [2] | Structure (SMILES) | further results
3.55 ± 0.43 µM | 67.7 ± 5.6 µM | NC(Cc1ccc(F)c(C(F)(F)F)c1)P(=O)(O)O (racemic) [1z, 1-Amino-2-(4-fluoro-3-trifluoromethylphenyl)ethylphosphonic Acid] | –
1.71 ± 0.52 µM | 15.7 ± 2.5 µM | NC(Cc1ccc(F)c(F)c1)P(=O)(O)O (racemic) [1h, 1-Amino-2-(3,4-difluorophenyl)ethylphosphonic Acid] | –
0.542 ± 0.152 µM | 6.93 ± 0.78 µM | NC(Cc1ccc(F)c(Cl)c1)P(=O)(O)O (racemic) [1t, 1-Amino-2-(3-chloro-4-fluorophenyl)ethylphosphonic Acid] | –
2.53 ± 0.4 µM | 66 ± 7.3 µM | NC(Cc1cccc(C(F)(F)F)c1)P(=O)(O)O (racemic) [1w, 1-Amino-2-(3-trifluoromethylphenyl)ethylphosphonic Acid] | –
1.01 ± 0.16 µM | 14.8 ± 0.9 µM | NC(Cc1ccc(Cl)c(F)c1)P(=O)(O)O (racemic) [1s, 1-Amino-2-(4-chloro-3-fluorophenyl)ethylphosphonic Acid] | –
360 ± 125 µM | – | NC(Cc1c(F)cccc1Cl)P(=O)(O)O (racemic) [1r, 1-Amino-2-(2-chloro-6-fluorophenyl)ethylphosphonic Acid] | pAPN Ki (μM) [2, 7]: 2557 ± 729 µM
24.9 ± 3 µM | 257 ± 27 µM | NC(Cc1ccc(C(F)(F)F)cc1)P(=O)(O)O (racemic) [1x, 1-Amino-2-(4-trifluoromethylphenyl)ethylphosphonic Acid] | –
327 ± 98 µM | 725 ± 121 µM | NC(Cc1c(F)cccc1F)P(=O)(O)O (racemic) [1g, 1-Amino-2-(2,6-difluorophenyl)ethylphosphonic Acid] | –
